Results on five molecules are retold here after paper PMC7444556, “MrpH, a new class of metal-binding adhesin, requires zinc to mediate biofilm formation” (PLoS Pathogens, 2020).

Structures can show the parent of a compound that is named as a salt. Where two headings read alike, the source gives them in different places.

Holding throughout (format): binding
Assay [1] has as its target T1, MrpH159 (MrpHntd) (Proteus mirabilis, UniProt B4EUK6).
T1 construct: gene mrpH; pEXP5-CT/TOPO (His-tag, Ni-NTA, no cleavage told); expressed in E. coli BL21-AI
The settings on record: 10 mM ligand, 10 uM protein, 24 mM NaCl, 6 mM HEPES pH 7.5, reference storage buffer 65.2±0.30 °C. The source says: thermal shift assay (SYPRO Orange) on MrpH159 (MrpHntd)

For a further assay, the target named is T2, MrpH153 (MrpHntd) (Proteus mirabilis, UniProt B4EUK6).
T2 construct: gene mrpH; C-terminal His-tag kept; expressed in E. coli
Briefly: thermal shift assay. The settings on record: 10 mM ammonium tartrate pH 7.0, 100 mM NaCl; reference 66.7 ± 0.6 °C in 10 mM HEPES pH 7.5.

The target of assay [2] is T1, MrpH159 (MrpHntd). Briefly: X-ray crystal structure, […] Å. To be noted: side chain carboxyl ligates Zn2+; ligand not added, picked up during expression, assigned from electron density.

T1 sequence (B4EUK6 entry or part of it): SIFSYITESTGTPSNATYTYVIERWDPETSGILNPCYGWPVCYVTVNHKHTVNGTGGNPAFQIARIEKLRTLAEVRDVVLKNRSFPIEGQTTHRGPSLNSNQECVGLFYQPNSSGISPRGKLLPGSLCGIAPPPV
T2 sequence (B4EUK6 entry or part of it): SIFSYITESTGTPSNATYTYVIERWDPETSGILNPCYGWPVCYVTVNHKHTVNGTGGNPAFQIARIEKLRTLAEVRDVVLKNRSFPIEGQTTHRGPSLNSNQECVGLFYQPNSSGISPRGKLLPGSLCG

Turning to `O=C(O)C(O)C(O)C(=O)O` (stereo not shown) [tartrate], the “<Tm> (°C)^a” value on MrpH159 (MrpHntd) [1] stood at 80.1±0.70 °C. The midpoint of thermal melting (Tm) on MrpH153 (MrpHntd) is 78.5 ± 0.1 °C.

On to `O=C(O)CC(O)(CC(=O)O)C(=O)O` [Sodium citrate], for which, at MrpH159 (MrpHntd) [1] (citrate pH not stated), the “<Tm> (°C)^a” value worked out at 73.3±0.64 °C.

As for `O=CO` [Sodium formate], the “<Tm> (°C)^a” value at MrpH159 (MrpHntd) [1] was determined as 68.4±0.75 °C.

In the case of `CC(=O)O` [Sodium acetate], the “<Tm> (°C)^a” value at MrpH159 (MrpHntd) [1] turned out to be 76.3±0.56 °C.

`N[C@@H](CCC(=O)O)C(=O)O` [glutamic acid]: the “<Tm> (°C)^a” value at MrpH159 (MrpHntd) [1] was 73.1±0.21 °C. Also, on MrpH159 (MrpHntd) [2], the “X-ray crystal structure, 1.75 Å” value is reported as “we have assigned glutamic acid as the bound ligand in the MrpH159 structure”.
